Measured values as given in article PMC6750895 (Journal of Medicinal Chemistry, 2019).
“Also recorded” adds a separate entry of the source.

Experiments:
[1] = set-up: method as in earlier work; conditions: urine; cited from earlier work
[2] = target: T1, MsCI4 (Magnetospirillum gryphiswaldense, UniProt A4TVL0); assay: FRET-based binding assay with WT MsCI4; conditions: for binding in the FRET assay (in words): WT MsCI4
T1 construct: made in house
T1 sequence (A4TVL0 1-124): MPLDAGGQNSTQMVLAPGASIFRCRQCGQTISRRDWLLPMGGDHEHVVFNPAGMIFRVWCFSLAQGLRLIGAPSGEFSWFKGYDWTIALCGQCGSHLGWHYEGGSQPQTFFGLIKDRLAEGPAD

[3] = system: IKZF3; assay: Compound-mediated IKZF3 degradation in OPM-2 cells (western blot); assay type: cell-based, human; conditions: 24 h
[4] = Solubility in water or bicarbonate buffer; assay type: physicochemical
[5] = spontaneous hydrolysis, physiological pH of 7.4; cited from earlier work

SMILES	binding in the FRET assay (in words) [2]	effect on IKZF3 levels / IKZF3 recruitment (in words) [3]	other results
NC(=O)CCC(C(=O)O)N1C(=O)c2ccccc2C1=O (stereo not shown) [2-phthalimidoglutaramic acid]			share among urinary metabolites of thalidomide [1]: ~50%
O=C1CC(N2C(=O)c3cccc([N+](=O)[O-])c3C2=O)C(=O)N1 (stereo not shown) [4a, 2-(2,5-Dioxopyrrolidin-3-yl)-4-nitroisoindoline-1,3-dione]	binding was observed but could not be quantified	abolish IKZF3 recruitment	
O=C1CC(N2C(=O)c3ccc([N+](=O)[O-])cc3C2=O)C(=O)N1 (stereo not shown) [4b, 2-(2,5-Dioxopyrrolidin-3-yl)-5-nitroisoindoline-1,3-dione]		abolish IKZF3 recruitment	
O=C1CCC(N2C(=O)c3cccc([N+](=O)[O-])c3C2=O)C(=O)N1 (stereo not shown) [4c, 2-(2,6-Dioxopiperidin-3-yl)-4-nitroisoindoline-1,3-dione]	binding was observed but could not be quantified	abolish IKZF3 recruitment	
O=C1CCC(N2C(=O)c3ccc([N+](=O)[O-])cc3C2=O)C(=O)N1 (stereo not shown) [4d, 2-(2,6-Dioxopiperidin-3-yl)-5-nitroisoindoline-1,3-dione]		abolish IKZF3 recruitment	
Nc1cccc2c1C(=O)N(C1CC(=O)NC1=O)C2=O (stereo not shown) [5a, 4-Amino-2-(2,5-dioxopyrrolidin-3-yl)isoindoline-1,3-dione]	binding was observed but could not be quantified	significant effects	
CC(C)=CC(=O)NC1CC(=O)NC1=O (stereo not shown) [7a, N-(2,5-Dioxopyrrolidin-3-yl)-3-methylbut-2-enamide]	binding was observed but could not be quantified		
O=C1CC(NC(=O)Cc2ccccc2)C(=O)N1 (stereo not shown) [7b, N-(2,5-Dioxopyrrolidin-3-yl)-2-phenylacetamide]	binding was observed but could not be quantified	abolished IKZF3 recruitment	
O=C1CC(NC(=O)OCc2ccccc2)C(=O)N1 (stereo not shown) [7d, Benzyl (2,5-Dioxopyrrolidin-3-yl)carbamate]		significant effects	reduction of IKZF3 levels ([3]; 100 μM): about 20%
O=C1CC(NC(=O)c2cc([N+](=O)[O-])cc([N+](=O)[O-])c2)C(=O)N1 (stereo not shown) [7e, N-(2,5-Dioxopyrrolidin-3-yl)-3,5-dinitrobenzamide]	binding was observed but could not be quantified; also recorded: affinity was decreased under the detectable levels of the FRET assay		
O=C(/C=C/c1ccccc1)NC1CC(=O)NC1=O (stereo not shown) [7f, N-(2,5-Dioxopyrrolidin-3-yl)cinnamamide]		significant effects	
O=C1CC(NC(=O)c2sc3ccccc3c2Cl)C(=O)N1 (stereo not shown) [7g, 3-Chloro-N-(2,5-dioxopyrrolidin-3-yl)benzo[b]thiophene-2-carboxamide]	binding was observed but could not be quantified		
NCc1ccc(COC(=O)NC2CC(=O)NC2=O)cc1.O=C(O)C(F)(F)F (stereo not shown) [11a, (4-((((2,5-Dioxopyrrolidin-3-yl)carbamoyl)oxy)methyl)phenyl)methanaminium 2,2,2-Trifluoroacetate]		abolished IKZF3 recruitment	solubility in water (in words) [4]: water-soluble
NCc1ccc(COC(=O)NC2CCC(=O)NC2=O)cc1.O=C(O)C(F)(F)F (stereo not shown) [11b, (4-((((2,6-Dioxopiperidin-3-yl)carbamoyl)oxy)methyl)phenyl)methanaminium 2,2,2-Trifluoroacetate]			Ki [2]: 10 ± 0.8 µM; solubility in water (in words) [4]: water-soluble
O=C(O)CCC(=O)NCc1ccc(COC(=O)NC2CC(=O)NC2=O)cc1 (stereo not shown) [12a, 4-((4-((((2,5-Dioxopyrrolidin-3-yl)carbamoyl)oxy)methyl)benzyl)amino)-4-oxobutanoic Acid]		abolished IKZF3 recruitment	
N[C@H]1CC[C@@H](COC(=O)NC2CC(=O)NC2=O)CC1 (stereo partly shown) [16a]			Ki [2]: 20 ± 2 µM; solubility in water (in words) [4]: water-soluble
N[C@H]1CC[C@@H](COC(=O)NC2CCC(=O)NC2=O)CC1 (stereo partly shown) [16b]			Ki [2]: 5 ± 0.5 µM; solubility in water (in words) [4]: water-soluble
O=C1CCC(NC(=O)c2ccccc2C(=O)O)C(=O)N1 (stereo not drawn) [CBG, α-(2-carboxybenzamido)glutarimide, reference compound]			share among urinary metabolites of thalidomide [1]: ~30%
O=C1CCC(N2C(=O)c3ccccc3C2=O)C(=O)N1 (stereo not shown) [thalidomide]			half-life [5]: 5.5 to 7.3 h
